Measured values as given in patent US8192962B2, “Processes for detecting toxic substances” (Daikin Industries, Ltd., priority 2001, dated 2012).

Test system: Energy system protein genes
Experiment: DNA chip mRNA expression in yeast, energy system protein genes (Table 4)
Assay type: cell-based, Saccharomyces cerevisiae S288C
Summary of the method: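 Values are treated/untreated fluorescence ratios from a whole-genome yeast DNA chip hybridized over 12 hours at 65° C with Cy3- or Cy5-labelled cDNA from poly(A) mRNA. Log-phase S288C yeast in YPD at 25° C had received a single toxic chemical for two hours, dosed to slow growth without killing.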

Measured: The level of expressed mRNA in the presence of chemical substance/The level of expressed mRNA in the absence of chemical substance

Oc1cc(Cl)c(Cl)cc1Cl [(6), 2,4,5-trichlorophenol]
6.2: yeast gene YGR256W
16.3: yeast gene YGR043C
1.7: yeast gene YBR221C, cells incubated two hours with the chemical substance | yeast gene YDL174C | yeast gene YDR050C, cells incubated two hours with the chemical substance | yeast gene YDR079W, cells incubated two hours with the chemical substance | yeast gene YGR192C | yeast gene YIL045W | yeast gene YIR031C, cells incubated two hours with the chemical substance | yeast gene YKR097W | yeast gene YML129C, cells incubated two hours with the chemical substance | yeast gene YOL086C, cells incubated two hours with the chemical substance | yeast gene YOL165C | yeast gene YPL061W, cells incubated two hours with the chemical substance
2.1: yeast gene YDR178W, cells incubated two hours with the chemical substance
2.8: yeast gene YGR207C | yeast gene YML100W | yeast gene YMR105C
1.2: yeast gene YBR185C, cells incubated two hours with the chemical substance | yeast gene YDL181W, cells incubated two hours with the chemical substance | yeast gene YDR298C, cells incubated two hours with the chemical substance | yeast gene YFL057C | yeast gene YKL035W | yeast gene YKL141W, cells incubated two hours with the chemical substance | yeast gene YLL041C, cells incubated two hours with the chemical substance | yeast gene YLR038C, cells incubated two hours with the chemical substance | yeast gene YMR089C | yeast gene YMR205C, cells incubated two hours with the chemical substance | yeast gene YPL240C
1.3: yeast gene YDL107W, cells incubated two hours with the chemical substance | yeast gene YDR377W, cells incubated two hours with the chemical substance | yeast gene YKL060C, cells incubated two hours with the chemical substance | yeast gene YML125C | yeast gene YNL071W | yeast gene YPL171C
2.9: yeast gene YBR126C | yeast gene YGR008C
1.9: yeast gene YGR254W | yeast gene YLR304C, cells incubated two hours with the chemical substance
0.4: yeast gene YGL018C, cells incubated two hours with the chemical substance | yeast gene YLR395C, cells incubated two hours with the chemical substance | yeast gene YMR323W, cells incubated two hours with the chemical substance
0.5: yeast gene YJR048W | yeast gene YKL148C, cells incubated two hours with the chemical substance
4.2: yeast gene YAL060W
1.5: yeast gene YEL039C, cells incubated two hours with the chemical substance | yeast gene YHR174W | yeast gene YJR121W, cells incubated two hours with the chemical substance | yeast gene YLR044C, cells incubated two hours with the chemical substance | yeast gene YLR354C, cells incubated two hours with the chemical substance | yeast gene YPR184W, cells incubated two hours with the chemical substance
2.4: yeast gene YJL052W
0.9: yeast gene YBL058W, cells incubated two hours with the chemical substance | yeast gene YBL099W, cells incubated two hours with the chemical substance | yeast gene YDL067C, cells incubated two hours with the chemical substance | yeast gene YGR062C, cells incubated two hours with the chemical substance, 25° C., YPD medium | yeast gene YLR284C, cells incubated two hours with the chemical substance | yeast gene YML087C | yeast gene YMR073C, cells incubated two hours with the chemical substance | yeast gene YNL241C
3.5: yeast gene YCL040W
7.1: yeast gene YPL088W
1.8: yeast gene YKR009C, cells incubated two hours with the chemical substance | yeast gene YLR258W, cells incubated two hours with the chemical substance | yeast gene YML054C | yeast gene YNL331C | yeast gene YPL031C, cells incubated two hours with the chemical substance
6.5: yeast gene YDL021W
2.7: yeast gene YOR178C, cells incubated two hours with the chemical substance
3.0: yeast gene YFR015C
1.6: yeast gene YGL191W, cells incubated two hours with the chemical substance | yeast gene YGL205W, cells incubated two hours with the chemical substance | yeast gene YIL160C | yeast gene YJR009C | yeast gene YKL152C | yeast gene YLR345W | yeast gene YOR142W, cells incubated two hours with the chemical substance | yeast gene YPL262W, cells incubated two hours with the chemical substance
2.6: yeast gene YGR244C | yeast gene YIL111W
3.7: yeast gene YHR179W
1.0: yeast gene YCR105W, cells incubated two hours with the chemical substance | yeast gene YGL062W | yeast gene YPL275W, cells incubated two hours with the chemical substance
2.2: yeast gene YDR001C | yeast gene YDR231C
3.2: yeast gene YFR053C
2.0: yeast gene YMR118C | yeast gene YNL202W, cells incubated two hours with the chemical substance
1.4: yeast gene YGR174C, cells incubated two hours with the chemical substance | yeast gene YJR155W | yeast gene YKR058W, cells incubated two hours with the chemical substance, 25° C., YPD medium | yeast gene YMR267W, cells incubated two hours with the chemical substance, 25° C., YPD medium | yeast gene YOR388C, cells incubated two hours with the chemical substance
0.6: yeast gene YML120C, cells incubated two hours with the chemical substance | yeast gene YMR261C, cells incubated two hours with the chemical substance | yeast gene YPR048W, cells incubated two hours with the chemical substance
4.6: yeast gene YNL237W
1.1: yeast gene YBR001C, cells incubated two hours with the chemical substance | yeast gene YDL078C, cells incubated two hours with the chemical substance | yeast gene YEL024W, cells incubated two hours with the chemical substance | yeast gene YGL187C, cells incubated two hours with the chemical substance | yeast gene YGR087C, cells incubated two hours with the chemical substance | yeast gene YJL121C, cells incubated two hours with the chemical substance | yeast gene YLR295C, cells incubated two hours with the chemical substance, 25° C., YPD medium | yeast gene YPL276W, cells incubated two hours with the chemical substance
2.5: yeast gene YCR012W | yeast gene YER178W | yeast gene YLR134W, cells incubated two hours with the chemical substance
0.7: yeast gene YGL256W, cells incubated two hours with the chemical substance | yeast gene YJL166W, cells incubated two hours with the chemical substance | yeast gene YLR377C, cells incubated two hours with the chemical substance
0.8: yeast gene YCR046C, cells incubated two hours with the chemical substance | yeast gene YDR529C, cells incubated two hours with the chemical substance | yeast gene YHL008C | yeast gene YKL016C, cells incubated two hours with the chemical substance
